We go through 28 compounds from patent US9630922B2, “3-spiro-7-hydroxamic acid tetralins as HDAC inhibitors” (Forma Therapeutics, Inc., priority 2015, dated 2017).

The test deals with T1, HDAC6 (Homo sapiens, UniProt Q9UBN7).
T1 construct: Full length human recombinant HDAC6 protein was expressed in baculoviral system; made in house; host or cells: baculoviral system
T1 sequence (Q9UBN7 1-1215): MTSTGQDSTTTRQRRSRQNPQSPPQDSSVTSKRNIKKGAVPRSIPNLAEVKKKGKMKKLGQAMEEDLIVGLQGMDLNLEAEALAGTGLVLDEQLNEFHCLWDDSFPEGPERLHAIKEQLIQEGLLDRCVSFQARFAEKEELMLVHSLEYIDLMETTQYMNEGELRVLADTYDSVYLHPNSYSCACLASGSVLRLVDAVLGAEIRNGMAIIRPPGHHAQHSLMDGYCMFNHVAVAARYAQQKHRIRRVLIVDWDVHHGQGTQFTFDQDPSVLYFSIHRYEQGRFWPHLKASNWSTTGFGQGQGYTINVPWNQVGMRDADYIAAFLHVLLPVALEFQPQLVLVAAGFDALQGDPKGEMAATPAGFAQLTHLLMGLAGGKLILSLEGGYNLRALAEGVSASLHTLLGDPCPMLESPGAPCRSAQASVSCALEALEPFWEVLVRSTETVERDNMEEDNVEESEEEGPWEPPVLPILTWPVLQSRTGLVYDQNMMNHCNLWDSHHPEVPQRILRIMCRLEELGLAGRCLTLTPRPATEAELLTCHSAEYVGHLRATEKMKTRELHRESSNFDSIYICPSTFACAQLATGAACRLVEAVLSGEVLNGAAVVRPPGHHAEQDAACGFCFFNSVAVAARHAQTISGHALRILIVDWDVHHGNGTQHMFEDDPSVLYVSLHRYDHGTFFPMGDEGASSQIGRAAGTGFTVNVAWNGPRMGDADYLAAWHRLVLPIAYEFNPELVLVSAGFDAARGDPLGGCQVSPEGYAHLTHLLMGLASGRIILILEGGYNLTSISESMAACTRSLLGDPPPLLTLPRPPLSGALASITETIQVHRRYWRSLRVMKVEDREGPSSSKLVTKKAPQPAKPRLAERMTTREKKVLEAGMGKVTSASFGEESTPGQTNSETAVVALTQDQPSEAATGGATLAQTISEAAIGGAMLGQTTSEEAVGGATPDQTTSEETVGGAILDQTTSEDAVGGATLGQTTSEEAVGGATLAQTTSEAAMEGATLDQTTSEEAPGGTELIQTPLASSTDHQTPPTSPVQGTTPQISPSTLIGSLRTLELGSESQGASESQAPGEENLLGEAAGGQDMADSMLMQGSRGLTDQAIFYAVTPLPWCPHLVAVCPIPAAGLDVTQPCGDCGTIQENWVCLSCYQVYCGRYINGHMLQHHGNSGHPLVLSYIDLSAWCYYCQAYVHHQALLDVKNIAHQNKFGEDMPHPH
The experiment in a line: In vitro Histone Deacetylase Assay (enzymatic HDAC6 electrophoretic mobility shift assay). It is filed as biochemical. The settings on record: full length human recombinant HDAC6, 1 nM enzyme, 2 μM peptide substrate RHKK(Ac)-NH2, 25° C.; read-out: HDAC6 activity range. The method, boiled down:
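Deacetylation was read by microfluidic mobility shift as product/(substrate+product) peak ratio and normalised to 0% and 100% inhibition controls. Reactions used 1 nM baculovirus-expressed full-length human HDAC6 and 2 μM labelled RHKK(Ac)-NH2 in pH 7.5 HEPES buffer with 1% DMSO at 25 °C. IC50 was from 4-parameter fits of 12 concentrations.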

With `O=C(NO)c1ccc2c(c1)CC[C@@]1(CCN(c3cncc(Cl)c3)C1=O)C2` [Compound I-138, (S)-1′-(5-chloropyridin-3-yl)-N-hydroxy-2′-oxo-3,4-dihydro-1H-spiro[naphthalene-2,3′-pyrrolidine]-6-carboxamide], the IC50 is at most 100 nM.

Turning to `CC(C)CCN1CC[C@@]2(CCc3cc(C(=O)NO)ccc3C2)C1=O` [Compound I-62, (S)-N-hydroxy-1′-isopentyl-2′-oxo-3,4-dihydro-1H-spiro[naphthalene-2,3′-pyrrolidine]-6-carboxamide], the IC50 is 100 to 500 nM. `O=C(NO)c1ccc2c(c1)CCC1(CC(=O)N(c3ccccc3)C1)C2` (single isomer, unassigned) [Compound I-204]: the IC50 was at most 100 nM. For the compound `CN1CC[C@]2(CCc3cc(C(=O)NO)ccc3C2)C1=O` [Compound I-104, (R)-N-hydroxy-1′-methyl-2′-oxo-3,4-dihydro-1H-spiro[naphthalene-2,3′-pyrrolidine]-6-carboxamide], the IC50 is at most 100 nM.

On to `CC(C)(C)Nc1cc(N2CC[C@]3(CCc4cc(C(=O)NO)ccc4C3)C2=O)ncn1` [Compound I-97, (R)-1′-(6-(tert-butylamino)pyrimidin-4-yl)-N-hydroxy-2′-oxo-3,4-dihydro-1H-spiro[naphthalene-2,3′-pyrrolidine]-6-carboxamide], for which the IC50 is at most 100 nM. Consider `O=C(NO)c1ccc2c(c1)CC[C@@]1(CCCN(CC3CCC3)C1=O)C2` (single isomer, unassigned) [Compound I-185], for which the IC50 is at most 100 nM. With `COc1ccc(N2CC[C@@]3(CCc4cc(C(=O)NO)ccc4C3)C2=O)c(F)c1` [Compound I-127, (2S)-1′-(2-fluoro-4-methoxyphenyl)-N-hydroxy-2′-oxo-3,4-dihydro-1H-spiro[naphthalene-2,3′-pyrrolidine]-6-carboxamide], the IC50 was at most 100 nM. With `COc1ccc(N2CC[C@]3(CCc4cc(C(=O)NO)ccc4C3)C2=O)cn1` [Compound I-114, (R)-N-hydroxy-1′-(6-methoxypyridin-3-yl)-2′-oxo-3,4-dihydro-1H-spiro[naphthalene-2,3′-pyrrolidine]-6-carboxamide], the IC50 was at most 100 nM. The value for `O=C(NO)c1ccc2c(c1)CC[C@@]1(CCN(Cc3cccc(F)c3)C1=O)C2` [Compound I-79, (S)-1′-(3-fluorobenzyl)-N-hydroxy-2′-oxo-3,4-dihydro-1H-spiro[naphthalene-2,3′-pyrrolidine]-6-carboxamide] was at most 100 nM; that for `Cc1ncccc1N1CC[C@]2(CCc3cc(C(=O)NO)ccc3C2)C1=O` [Compound I-131, (R)-N-hydroxy-1′-(2-methylpyridin-3-yl)-2′-oxo-3,4-dihydro-1H-spiro[naphthalene-2,3′-pyrrolidine]-6-carboxamide] was at most 100 nM.

Take `O=C(NO)c1ccc2c(c1)CC[C@@]1(CCN(c3cncc(F)c3)C1=O)C2` [Compound I-153, (2S)-1′-(5-fluoropyridin-3-yl)-N-hydroxy-2′-oxo-3,4-dihydro-1H-spiro[naphthalene-2,3′-pyrrolidine]-6-carboxamide]: the IC50 is at most 100 nM. Turning to `O=C(NO)c1ccc2c(c1)CC[C@]1(CCN(CC(F)(F)F)C1=O)C2` [Compound I-165, (R)-N-hydroxy-2′-oxo-1′-(2,2,2-trifluoroethyl)-3,4-dihydro-1H-spiro[naphthalene-2,3′-pyrrolidine]-6-carboxamide], the IC50 is at most 100 nM. The value for `O=C(NO)c1ccc2c(c1)CCC1(CCN(Cc3ccccc3)C1=O)S2(=O)=O` (stereo not shown) [Compound I-239, 1-benzyl-N-hydroxy-2-oxospiro[pyrrolidine-3,2′-thiochromane]-6′-carboxamide 1′,1′-dioxide] was 100 to 500 nM; that for `COc1ccncc1N1CC[C@@]2(CCc3cc(C(=O)NO)ccc3C2)C1=O` [Compound I-142, (S)-N-hydroxy-1′-(4-methoxypyridin-3-yl)-2′-oxo-3,4-dihydro-1H-spiro[naphthalene-2,3′-pyrrolidine]-6-carboxamide] was at most 100 nM; that for `O=C(NO)c1ccc2c(c1)CCC1(CCN(Cc3ccccc3)C1=O)O2` (stereo not shown) [Compound I-232, 1′-benzyl-N-hydroxy-2′-oxospiro[chromane-2,3′-pyrrolidine]-6-carboxamide] was 100 to 500 nM. In the case of `COc1cccc(N2CC[C@]3(CCc4cc(C(=O)NO)ccc4C3)C2=O)c1F` [Compound I-125, (2R)-1′-(2-fluoro-3-methoxyphenyl)-N-hydroxy-2′-oxo-3,4-dihydro-1H-spiro[naphthalene-2,3′-pyrrolidine]-6-carboxamide], the IC50 is at most 100 nM.

In the case of `O=C(NO)c1ccc2c(c1)CC[C@]1(CCN(Cc3cnc(O)s3)C1=O)C2` [Compound I-31, (R)-N-hydroxy-1′-((2-hydroxythiazol-5-yl)methyl)-2′-oxo-3,4-dihydro-1H-spiro[naphthalene-2,3′-pyrrolidine]-6-carboxamide], the IC50 was at most 100 nM. The value for `O=C(NO)c1ccc2c(c1)CCC1(CC(=O)N(CC3COC3)C1)C2` (single isomer, unassigned) [Compound I-217] was 100 to 500 nM; that for `O=C(NO)c1ccc2c(c1)CC[C@@]1(CCN(c3ccncc3)C1=O)C2` [Compound I-17, (S)-N-hydroxy-2′-oxo-1′-(pyridin-4-yl)-3,4-dihydro-1H-spiro[naphthalene-2,3′-pyrrolidine]-6-carboxamide] was at most 100 nM; that for `O=C(NO)c1ccc2c(c1)CC[C@]1(CCN(c3ccncc3)C1=O)C2` [Compound I-16, (R)-N-hydroxy-2′-oxo-1′-(pyridin-4-yl)-3,4-dihydro-1H-spiro[naphthalene-2,3′-pyrrolidine]-6-carboxamide] was 100 to 500 nM. For `COCCn1c(CN2CC[C@@]3(CCc4cc(C(=O)NO)ccc4C3)C2=O)nc2ccccc21` [Compound I-23, (S)-N-hydroxy-1′-((1-(2-methoxyethyl)-1H-benzo[d]imidazol-2-yl)methyl)-2′-oxo-3,4-dihydro-1H-spiro[naphthalene-2,3′-pyrrolidine]-6-carboxamide], the IC50 is at most 100 nM.

On to `COCCn1c(CN2CC[C@]3(CCc4cc(C(=O)NO)ccc4C3)C2=O)nc2ccccc21` [Compound I-22, (R)-N-hydroxy-1′-((1-(2-methoxyethyl)-1H-benzo[d]imidazol-2-yl)methyl)-2′-oxo-3,4-dihydro-1H-spiro[naphthalene-2,3′-pyrrolidine]-6-carboxamide], for which the IC50 is at most 100 nM.

On to `O=C(NO)c1ccc2c(c1)CC[C@]1(CCN(c3cccnc3)C1=O)C2` [Compound I-10, (R)-N-hydroxy-2′-oxo-1′-(pyridin-3-yl)-3,4-dihydro-1H-spiro[naphthalene-2,3′-pyrrolidine]-6-carboxamide], for which the IC50 is at most 100 nM. The value for `O=C(NO)c1ccc2c(c1)CC[C@]1(CCN(C3CCCC3)C1=O)C2` [Compound I-163, (R)-1′-cyclopentyl-N-hydroxy-2′-oxo-3,4-dihydro-1H-spiro[naphthalene-2,3′-pyrrolidine]-6-carboxamide] was at most 100 nM; that for `O=C(NO)c1ccc2c(c1)CC[C@]1(CCN(Cc3ccccc3OC(F)F)C1=O)C2` [Compound I-59, (R)-1′-(2-(difluoromethoxy)benzyl)-N-hydroxy-2′-oxo-3,4-dihydro-1H-spiro[naphthalene-2,3′-pyrrolidine]-6-carboxamide] was at most 100 nM. `CC(C)CN1CC2(CCc3cc(C(=O)NO)ccc3C2)CC1=O` (single isomer, unassigned) [Compound I-212]: the IC50 was at most 100 nM. The value for `O=C(NO)c1ccc2c(c1)CC[C@]1(CCN(c3cncc(F)c3)C1=O)C2` [Compound I-110, (R)-1′-(5-fluoropyridin-3-yl)-N-hydroxy-2′-oxo-3,4-dihydro-1H-spiro[naphthalene-2,3′-pyrrolidine]-6-carboxamide] was at most 100 nM; that for `COc1cccc(N2CC[C@@]3(CCc4cc(C(=O)NO)ccc4C3)C2=O)c1` [Compound I-158, (S)-N-hydroxy-1′-(3-methoxyphenyl)-2′-oxo-3,4-dihydro-1H-spiro[naphthalene-2,3′-pyrrolidine]-6-carboxamide] was at most 100 nM.
